Results published in patent EP4692090A1 (Shanghai Fosun Pharmaceutical (Group) Co., Ltd., priority 2023, dated 2024).
Like-named read-outs stand apart in the source and are kept apart here.

Tests used:
[1] = tested on: LoVo cells; assay: LoVo cell proliferation assay (CellTiter-Glo); assay type: cell-based; details: maximum concentration 10 µM, 9 concentrations
Procedure, shortened: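 LoVo cells, 2,000 per well, were treated after overnight attachment with 9-point 3-fold dilutions from 10 µM for 5 days at 37 °C. Viability was read by CellTiter-Glo luminescence. Inhibition % was taken relative to DMSO control, and IC50 came from the concentration–inhibition curve.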

[2] = target: T1, ATR kinase (Homo sapiens, UniProt Q13535); assay: Inhibitory effect on ATR kinase activity (Caliper mobility shift, FAM-labeled RAD17 peptide substrate); assay type: biochemical
T1 construct: purchased Eurofins 14-953
T1 sequence (Q13535 whole entry): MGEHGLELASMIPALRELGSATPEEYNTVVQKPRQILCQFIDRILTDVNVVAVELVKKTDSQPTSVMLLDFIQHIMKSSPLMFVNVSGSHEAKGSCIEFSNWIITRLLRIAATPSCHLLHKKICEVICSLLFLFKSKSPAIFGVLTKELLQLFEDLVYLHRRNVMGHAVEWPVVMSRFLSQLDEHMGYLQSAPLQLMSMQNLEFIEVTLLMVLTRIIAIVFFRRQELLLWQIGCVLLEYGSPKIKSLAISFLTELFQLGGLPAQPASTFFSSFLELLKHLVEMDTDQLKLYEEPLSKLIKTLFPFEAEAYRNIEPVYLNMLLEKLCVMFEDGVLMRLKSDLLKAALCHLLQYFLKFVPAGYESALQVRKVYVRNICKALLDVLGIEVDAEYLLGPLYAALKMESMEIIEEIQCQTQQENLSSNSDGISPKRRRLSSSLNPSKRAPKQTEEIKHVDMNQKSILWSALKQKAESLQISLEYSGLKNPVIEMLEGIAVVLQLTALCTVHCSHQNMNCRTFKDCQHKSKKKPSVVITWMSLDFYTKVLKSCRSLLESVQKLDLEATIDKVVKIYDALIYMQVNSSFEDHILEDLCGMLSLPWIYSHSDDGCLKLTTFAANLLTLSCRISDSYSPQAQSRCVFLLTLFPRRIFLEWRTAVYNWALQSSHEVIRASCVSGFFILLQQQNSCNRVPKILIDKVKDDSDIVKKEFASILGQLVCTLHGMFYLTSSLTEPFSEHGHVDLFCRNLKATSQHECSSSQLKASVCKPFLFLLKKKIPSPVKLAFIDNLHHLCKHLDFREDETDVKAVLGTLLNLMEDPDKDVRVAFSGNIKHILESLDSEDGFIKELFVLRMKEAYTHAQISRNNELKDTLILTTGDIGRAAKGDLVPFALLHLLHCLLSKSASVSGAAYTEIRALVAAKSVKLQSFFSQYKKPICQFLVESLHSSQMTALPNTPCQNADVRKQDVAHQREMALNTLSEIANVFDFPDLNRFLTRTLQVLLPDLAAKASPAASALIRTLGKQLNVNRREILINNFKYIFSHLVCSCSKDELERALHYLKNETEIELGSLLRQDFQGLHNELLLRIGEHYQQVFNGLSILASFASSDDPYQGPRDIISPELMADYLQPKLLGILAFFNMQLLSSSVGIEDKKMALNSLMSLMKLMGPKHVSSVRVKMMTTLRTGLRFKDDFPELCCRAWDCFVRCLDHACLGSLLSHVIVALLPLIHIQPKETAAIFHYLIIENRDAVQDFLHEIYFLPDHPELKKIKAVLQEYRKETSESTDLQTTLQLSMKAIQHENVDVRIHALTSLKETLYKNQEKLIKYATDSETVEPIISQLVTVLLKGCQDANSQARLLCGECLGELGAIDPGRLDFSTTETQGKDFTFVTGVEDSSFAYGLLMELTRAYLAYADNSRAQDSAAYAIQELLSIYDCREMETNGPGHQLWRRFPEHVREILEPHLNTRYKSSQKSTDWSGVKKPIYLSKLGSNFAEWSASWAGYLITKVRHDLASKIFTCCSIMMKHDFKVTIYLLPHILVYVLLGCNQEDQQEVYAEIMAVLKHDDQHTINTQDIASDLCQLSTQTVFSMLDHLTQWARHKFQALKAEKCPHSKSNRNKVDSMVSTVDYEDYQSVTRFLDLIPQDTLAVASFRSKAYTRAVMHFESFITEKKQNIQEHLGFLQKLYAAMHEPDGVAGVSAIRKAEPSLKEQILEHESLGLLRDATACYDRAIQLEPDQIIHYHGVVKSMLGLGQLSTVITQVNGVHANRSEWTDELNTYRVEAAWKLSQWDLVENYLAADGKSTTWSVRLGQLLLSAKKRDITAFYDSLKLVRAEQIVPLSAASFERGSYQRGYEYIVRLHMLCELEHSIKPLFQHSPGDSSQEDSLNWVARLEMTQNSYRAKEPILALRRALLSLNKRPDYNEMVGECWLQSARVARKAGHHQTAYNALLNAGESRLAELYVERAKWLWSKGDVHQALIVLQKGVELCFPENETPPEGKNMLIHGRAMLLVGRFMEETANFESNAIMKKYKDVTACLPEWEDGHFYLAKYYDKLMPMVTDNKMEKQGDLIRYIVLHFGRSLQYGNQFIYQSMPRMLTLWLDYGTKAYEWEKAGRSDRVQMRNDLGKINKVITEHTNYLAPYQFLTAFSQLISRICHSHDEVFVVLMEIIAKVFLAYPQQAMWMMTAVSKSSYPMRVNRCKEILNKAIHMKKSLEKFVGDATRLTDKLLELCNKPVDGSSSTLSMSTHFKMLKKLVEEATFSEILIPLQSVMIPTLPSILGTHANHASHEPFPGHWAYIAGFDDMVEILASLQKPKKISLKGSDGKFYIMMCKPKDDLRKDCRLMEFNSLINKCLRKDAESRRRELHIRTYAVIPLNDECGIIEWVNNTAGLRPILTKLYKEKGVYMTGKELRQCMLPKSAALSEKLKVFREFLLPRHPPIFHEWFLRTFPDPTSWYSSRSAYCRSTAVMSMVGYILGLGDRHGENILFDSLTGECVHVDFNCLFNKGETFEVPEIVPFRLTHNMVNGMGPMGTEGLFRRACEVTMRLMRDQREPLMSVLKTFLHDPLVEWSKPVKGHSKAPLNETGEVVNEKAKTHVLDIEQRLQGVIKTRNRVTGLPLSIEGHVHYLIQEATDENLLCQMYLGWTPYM
T1 sequence (Q8WXE1 whole entry partner): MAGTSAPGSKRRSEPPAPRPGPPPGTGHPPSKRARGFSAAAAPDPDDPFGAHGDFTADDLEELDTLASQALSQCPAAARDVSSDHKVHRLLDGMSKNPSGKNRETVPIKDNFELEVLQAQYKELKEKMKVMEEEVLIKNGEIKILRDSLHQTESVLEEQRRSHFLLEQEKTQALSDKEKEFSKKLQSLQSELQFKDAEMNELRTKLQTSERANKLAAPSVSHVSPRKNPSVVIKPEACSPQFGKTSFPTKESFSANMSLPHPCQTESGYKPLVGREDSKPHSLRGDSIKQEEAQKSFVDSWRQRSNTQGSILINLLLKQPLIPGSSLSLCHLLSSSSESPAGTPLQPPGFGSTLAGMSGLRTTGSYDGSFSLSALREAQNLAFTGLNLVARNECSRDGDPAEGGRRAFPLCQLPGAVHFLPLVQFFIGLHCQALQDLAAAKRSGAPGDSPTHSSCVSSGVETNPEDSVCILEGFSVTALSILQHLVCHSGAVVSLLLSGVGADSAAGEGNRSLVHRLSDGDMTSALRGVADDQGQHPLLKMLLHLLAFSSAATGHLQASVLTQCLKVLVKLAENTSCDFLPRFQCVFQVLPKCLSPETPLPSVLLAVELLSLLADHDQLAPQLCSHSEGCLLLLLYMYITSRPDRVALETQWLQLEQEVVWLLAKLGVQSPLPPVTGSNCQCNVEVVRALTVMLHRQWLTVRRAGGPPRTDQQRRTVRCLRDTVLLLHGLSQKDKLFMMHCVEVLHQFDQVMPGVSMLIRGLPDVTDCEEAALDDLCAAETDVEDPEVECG
Procedure, shortened: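 Caliper mobility-shift assay with 1 nM ATR, FAM-labeled RAD17 peptide […] and 5 mM ATP in HEPES pH 7.5 with 10 mM MnCl2, run 3 h at 28 °C and stopped with EDTA. Compounds were tested in 10-point 3-fold dilutions from 1 µM. IC50 was fitted from % inhibition of substrate conversion versus blank control.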

[3] = Homo sapiens, LoVo, 120 h, LoVo cells, 2,000 cells per well, 5 days incubation, CellTiter-Glo, read-out: LoVo IC50
[4] = 1 nM ATR kinase (Eurofins), 28°C for 3 hours, maximum concentration 1 µM, 10 concentrations, read-out: ATR kinase IC50
[5] = Homo sapiens, LoVo, 120 h, read-out: LoVo IC50 (nM), LoVo cells, 2,000 cells per well, 5 days incubation, CellTiter-Glo
[6] = read-out: ATR kinase IC50, 1 nM ATR kinase (Eurofins), 28°C for 3 hours, maximum concentration 1 µM, 10 concentrations
[7] = LoVo cells, 2,000 cells per well, 5 days incubation, CellTiter-Glo, read-out: LoVo IC50

Row | SMILES | IC50 [1, 3] | IC50 [2, 4] | IC50 [1, 7] | IC50 [1, 5] | IC50 [2, 6]
1 | CC(C)S(=O)(=O)N1CCc2nn(-c3cc[nH]n3)c3nc(N4CCOC[C@H]4C)cc(c23)C1 [Compound 24, (R)-4-(7-(isopropylsulfonyl)-2-(1H-pyrazol-3-yl)-6,7,8,9-tetrahydro-2H-1,2,3,7-tetraazabenzo[cd]azulen-4-yl)-3-methylmorpholine] | 100 to 1000 nM | < 10 nM |  |  | 
2 | C[C@@H]1COCCN1c1cc2c3c(nn(-c4cc[nH]n4)c3n1)CCC(=O)N2C1(C)CC1 [Compound 75, (R)-6-(1-methylcyclopropyl)-4-(3-methylmorpholino)-2-(1H-pyrazol-3-yl)-2,6,8,9-tetrahydro-7H-1,2,3,6-tetraazabenzo[cd]azulene-7-one] | < 100 nM | < 10 nM |  |  | 
3 | C[C@@H]1COCCN1c1cc2c3c(nn(-c4cc[nH]n4)c3n1)CCOC2(C)C [Compound 146, (R)-6,6-dimethyl-4-(3-methylmorpholino)-2-(1H-pyrazol-3-yl)-2,6,8,9-tetrahydro-7-oxa-1,2,3-triazabenzo[cd]azulene] | < 100 nM | < 10 nM |  |  | 
4 | C[C@@H]1COCCN1c1cc2c3c(n1)c(-c1cc[nH]n1)nn3CCC(=O)N2C1(CO)CC1 [Compound 114, (R)-6-(1-(hydroxymethyl)cyclopropyl)-4-(3-methylmorpholinyl)-2-(1H-pyrazol-3-yl)-8,9-dihydro-1,3,6,9a-tetraazabenzo[cd]azulene-7(6H)-one] |  |  |  | 100 to 1000 nM | < 10 nM
5 | C[C@@H]1COCCN1c1cc2c3c(n1)c(-c1cc[nH]n1)nn3CCC(=O)N2C1CC2(CCC2)C1 [Compound 92, (R)-4-(3-methylmorpholino)-2-(1H-pyrazol-3-yl)-6-(spiro [3.3]hept-2-yl)-8,9-dihydro-1,3,6,9a-tetraazabenzo[cd]azulene-7(6H)-one] | 100 to 1000 nM | 10 to 100 nM |  |  | 
6 | C[C@@H]1COCCN1c1cc2c3c(n1)c(-c1cc[nH]n1)nn3CCC(=O)N2C1(CF)CC1 [Compound 112, (R)-6-(1-(fluoromethyl)cyclopropyl)-4-(3-methylmorpholinyl)-2-(1H-pyrazol-3-yl)-8,9-dihydro-1,3,6,9a-tetraazabenzo[cd]azulene-7(6H)-one] |  |  |  | < 100 nM | < 10 nM
7 | C[C@@H]1COCCN1c1cc2c3c(nn(-c4cc[nH]n4)c3n1)CCN(C(=O)C1CC(F)(F)C1)C2 [Compound 9, (R)-(3,3-difluorocyclobutyl)(4-(3-methylmorpholino)-2-(1H-pyrazol-3-yl)-2,6,8,9-tetrahydro-7H-1,2,3,7-tetraazabenzo[cd]azulene-7-yl)methanone] | > 1000 nM | 10 to 100 nM |  |  | 
8 | C[C@@H]1COCCN1c1cc2c3c(nn(-c4cc[nH]n4)c3n1)CCC(=O)N2C1CC(F)(F)C1 [Compound 79, (R)-6-(3,3-difluorocyclobutyl)-4-(3-methylmorpholinyl)-2-(1H-pyrazol-3-yl)-2,6,8,9-tetrahydro-7H-1,2,3,6-tetraazabenzo[cd]azulene-7-one] |  |  |  | 100 to 1000 nM | < 10 nM
9 | C[C@@H]1COCCN1c1cc2c3c(nc(-c4cc[nH]n4)n3n1)CCC(=O)N2C1(C)CC1 [Compound 154, (R)-6-(1-methylcyclopropyl)-4-(3-methylmorpholino)-2-(1H-pyrazol-3-yl)-8,9-dihydro-1,2a,3,6-tetraazabenzo[cd]azulene-7(6H )-one] | < 100 nM | < 10 nM |  |  | 
10 | C[C@@H]1COCCN1c1cc2c3c(n1)c(-c1cc[nH]n1)nn3CCC(=O)N2C1CCOCC1 [Compound 91, (R)-4-(3-methylmorpholino)-2-(1H-pyrazol-3-yl)-6-(tetrahydro-2H-pyran-4-yl)-8,9-dihydro-1,3,6,9a-tetraazabenzo[cd]azulene-7(6H)-one] | 100 to 1000 nM | 10 to 100 nM |  |  | 
11 | C[C@@H]1COCCN1c1cc2c3c(n1)c(-c1cc[nH]n1)nn3CCC(=O)N2C1CC2(CC(O)C2)C1 (stereo partly drawn) [Compound 97, (R)-6-(6-hydroxyspiro[3.3]hept-2-yl)-4-(3-methylmorpholinyl)-2-(1H-pyrazol-3-yl)-8,9-dihydro-1,3,6,9a-tetraazabenzo[cd]azulene-7(6H)-one] |  |  |  | 100 to 1000 nM | < 10 nM
12 | C[C@@H]1COCCN1c1cc2c3c(nn(-c4cc[nH]n4)c3n1)CCN(c1ccccc1)C2 [Compound 17, (R)-3-methyl-4-(7-phenyl-2-(1H-pyrazol-3-yl)-6,7,8,9-tetrahydro-2H-1,2,3,7-tetraazabenzo[cd]azulen-4-yl)morpholine] | > 1000 nM | 10 to 100 nM |  |  | 
13 | CC(C1CC1)N1C(=O)CCn2nc(-c3cc[nH]n3)c3nc(N4CCOC[C@H]4C)cc1c32 (stereo partly drawn) [Compound 100, 6-(1-cyclopropylethyl)-4-((R)-3-methylmorpholinyl)-2-(1H-pyrazol-3-yl)-8,9-dihydro-1,3,6,9a-tetraazabenzo[cd]azulene-7(6H)-one] |  |  |  | 100 to 1000 nM | 10 to 100 nM
14 | C[C@@H]1COCCN1c1cc2c3c(n1)c(-c1cc[nH]n1)nn3CCN(C(=O)C1CC1)C2 [Compound 54, (R)-cyclopropyl(4-(3-methylmorpholino)-2-(1H-pyrazol-3-yl)-8,9-dihydro-1,3,7,9a-tetraazabenzo[cd]azulene-7(6H)-yl)methanone] | 100 to 1000 nM | 10 to 100 nM |  |  | 
15 | C[C@@H]1COCCN1c1cc2c3c(n1)c(-c1cc[nH]n1)nn3CCC(=O)N2CCC(F)(F)F [Compound 85, (R)-4-(3-methylmorpholino)-2-(1H-pyrazol-3-yl)-6-(3,3,3-trifluoropropyl)-8,9-dihydro-1,3,6,9a-tetraazabenzo[cd]azulene-7(6H)-one] | < 100 nM | 10 to 100 nM |  |  | 
16 | C[C@@H]1COCCN1c1cc2c3c(nn(-c4cc[nH]n4)c3n1)CCN(C1CC1)C2=O [Compound 132, (R)-7-cyclopropyl-4-(3-methylmorpholino)-2-(1H-pyrazol-3-yl)-2,7,8,9-tetrahydro-6H-1,2,3,7-tetraazabenzo[cd]azulene-6-one] | < 100 nM | 10 to 100 nM |  |  | 
17 | CC(=O)N1CCc2nn(-c3cc[nH]n3)c3nc(N4CCOC[C@H]4C)cc(c23)C1 [Compound 5] | 100 to 1000 nM | 10 to 100 nM |  |  | 
18 | C[C@@H]1COCCN1c1cc2c3c(nn(-c4cc[nH]n4)c3n1)CCC(=O)N2CC1(C)CC1 [Compound 77, (R)-6-((1-methylcyclopropyl)methyl)-4-(3-methylmorpholino)-2-(1H-pyrazol-3-yl)-2,6,8,9-tetrahydro-7H-1,2,3,6-tetraazabenzo[cd]azulene-7-one] | < 100 nM | < 10 nM |  |  | 
19 | CC(C)CN1C(=O)CCn2nc(-c3cc[nH]n3)c3nc(N4CCOC[C@H]4C)cc1c32 [Compound 84, (R)-6-isobutyl-4-(3-methylmorpholino)-2-(1H-pyrazol-3-yl)-8,9-dihydro-1,3,6,9a-tetraazabenzo[cd]azulene-7(6H)-one] | < 100 nM | < 10 nM |  |  | 
20 | CC(C)N1CCn2nc(-c3cc[nH]n3)c3nc(N4CCOC[C@H]4C)cc1c32 [Compound 63, (R)-4-(5-isopropyl-1-(1H-pyrazol-3-yl)-4,5-dihydro-3H-2,2a,5,8-tetraazaacenaphthen-7-yl)-3-methylmorpholine] | 100 to 1000 nM | 100 to 1000 nM |  |  | 

Further lines, with some results ahead:

Row | IC50 [1, 3] | IC50 [2, 4] | IC50 [1, 7] | SMILES | IC50 [1, 5] | IC50 [2, 6]
21 | 100 to 1000 nM | 10 to 100 nM |  | CC1c2cc(N3CCOC[C@H]3C)nc3c2c(nn3-c2cc[nH]n2)CCN1CC1COC1 (single isomer, unassigned) [Compound 44A] |  | 
22 | 100 to 1000 nM | < 10 nM |  | CC(C)N1CCc2nn(-c3cc[nH]n3)c3nc(N4CCOC[C@H]4C)cc(c23)C1C (single isomer, unassigned) [Compound 36A] |  | 
23 |  | < 10 nM | < 100 nM | [2H]C([2H])([2H])N1CCc2nn(-c3cc[nH]n3)c3nc(N4CCOC[C@H]4C)cc(c23)C1C (single isomer, unassigned) [Compound 47B] |  | 
24 |  | < 10 nM | < 100 nM | CCS(=O)(=O)N1CCc2nn(-c3cc[nH]n3)c3nc(N4CCOC[C@H]4C)cc(c23)C1C (single isomer, unassigned) [Compound 48B] |  | 
25 | < 100 nM | < 10 nM |  | CC1c2cc(N3CCOC[C@H]3C)nc3c2c(nn3-c2cc[nH]n2)CCN1S(=O)(=O)C1(C)CC1 (single isomer, unassigned) [Compound 49A] |  | 
26 | < 100 nM | < 10 nM |  | CC1c2cc(N3CCOC[C@H]3C)nc3c2c(nn3-c2cc[nH]n2)CCN1C1(C#N)CC1 (single isomer, unassigned) [Compound 42A] |  | 
27 | > 1000 nM | 10 to 100 nM |  | C[C@@H]1COCCN1c1cc2c3c(nn(-c4cc[nH]n4)c3n1)CCN(C(=O)C1CC3(C1)CC3(F)F)C2 (single isomer, unassigned) [Compound 20A] |  | 
28 | 100 to 1000 nM | 10 to 100 nM |  | CCS(=O)(=O)N1CCc2nn(-c3cc[nH]n3)c3nc(N4CCOC[C@H]4C)cc(c23)C1C (single isomer, unassigned) [Compound 48A] |  | 
29 | 100 to 1000 nM | < 10 nM |  | C[C@@H]1COCCN1c1cc2c3c(nn(-c4cc[nH]n4)c3n1)CCN(S(C)(=O)=O)C2C1CC1 (single isomer, unassigned) [Compound 138A] |  | 
30 | < 100 nM | 10 to 100 nM |  | CC1c2cc(N3CCOC[C@H]3C)nc3c2c(nn3-c2cc[nH]n2)CCN1S(=O)(=O)C1CC1 (single isomer, unassigned) [Compound 37A] |  | 
